In patent US20100137314A1, “HARMFUL ORGANISM CONTROL COMPOSITION” (priority 2007, published 2010):

Assays:
Bemisia tabaci [1] = assay: Test Example 1: cabbage leaf disc immersion test, life or death of Bemisia tabaci imagoes after 4 days; format: in vivo; details: foliar, 96 h, compound X alone 1000 ppm, cabbage leaf disc immersed 30 seconds, read-out: Pest controlling value (%)
Experimental: Ten parts of the compound X was dissolved in 40 parts of xylene and 40 parts of N,N-dimethylformamide, and thereto was added 10 parts of Sorpol 3005X (manufactured by TOHO Chemical Industry Co., LTD.). The mixture was stirred well to prepare a formulation. Separately, 10 parts of any one of the compound I-(5), the compound I-(34), the compound I-(68), the compound I-(70), the compound I-(74), the compound I-(115), the compound I-(117), the compound I-(119), the compound I-(204) and the compound I-(213) was dissolved in 40 parts of xylene and 40 parts of N,N-dimethylformamide, and thereto was added 10 parts of Sorpol 3005X (manufactured by TOHO Chemical Industry Co., LTD.). The mixture was stirred well to prepare a formulation. The formulation of the compound X was diluted with water to a predetermined concentration (1000 ppm). […] After 4 days, the life or death of the Bemisia tabaci imagoes was determined, and a controlling value was calculated by the following equation: […] wherein Cb: the number of insects in a non-treated section before treatment, Cai: the number of insects in a non-treated section on observation, Tb: the number of insects in a treated-section before treatment, Tai: the number of insects in a treated section on observation. […]

Bemisia tabaci [2] = assay: Test Example 2: cabbage leaf disc immersion test, life or death of Bemisia tabaci imagoes after 2 days; format: in vivo; details: compound X alone 2000 ppm
Experimental: Ten parts of the compound I-(138) was dissolved in 40 parts of xylene and 40 parts of N,N-dimethylformamide, and thereto was added 10 parts of Sorpol 3005X (manufactured by TOHO Chemical Industry Co., LTD.). The mixture was stirred well to prepare a formulation.
The formulation of the compound X prepared in Test Example 1 was diluted with water to a predetermined concentration (2000 ppm). To the water dilution was added the formulation of the compound I-(138) so that the concentration of the compound I became a predetermined concentration (800 ppm). To the resulting dilution was added 1/5000 by volume of a spreading agent (New Rinou manufactured by Nihon Nohyaku) to prepare a test diluted solution.
Separately, the formulation of the compound I-(138) was diluted with water to a predetermined concentration (800 ppm). To the water dilution was added 1/5000 by volume of a spreading agent (New Rinou manufactured by Nihon Nohyaku) to prepare a test diluted solution. […]
On the other hand, 3 mL of 1% agar was put in a glass cup having an internal diameter of 2.6 cm and a height of 4.5 cm. […] After 2 days, the life or death of the Bemisia tabaci imagoes was determined, and a controlling value was calculated by the above-described equation.

For `CC#CCOc1cc(Cc2ccccc2Cl)ncn1` [compound X, 4-(2-chlorobenzyl)-6-(2-butynyloxy)pyrimidine], the pest or weed control at 1000 ppm (Bemisia tabaci [1]) was 25% and the “Pest controlling value (%)” value (Bemisia tabaci [2]) was 26%.
